Reference: PMC11396129, “Oxindole–benzothiazole hybrids as CDK2 inhibitors and anticancer agents: design, synthesis and biological evaluation” (BMC Chemistry, 2024)

How the values were obtained:
SNB-75 = assay: NCI 60 panel growth inhibition (SRB), CNS cancer; type: cell-based, human; settings: SNB-75, 10 μM
Description: (§1) Screening of cytotoxic activity against a panel of sixty human tumor cell lines The selected compounds by NCI were evaluated for their anticancer activity in a two- stage process. […] Then, the output from the single dose screen is reported as a mean graph. […] Assay protocol. […] For a typical screening experiment, cells are inoculated into 96 well microtiter plates in 100 µL at plating densities ranging from 5000 to 40,000 cells/well depending on the doubling time of individual cell lines. […] After 24 h, two plates of each cell line are fixed in situ with TCA, to represent a measurement of the cell population for each cell line at the time of drug addition (Tz). The experimental drugs are solubilized in dimethyl sulfoxide at 400-fold the desired final maximum test concentration and stored frozen prior to use. At the time of drug addition, an aliquot of frozen concentrate is thawed and diluted to twice the desired final maximum test concentration with complete medium containing 50 µg/mL gentamicin. Additional four, 10-fold or ½ log serial dilutions are made to provide a total of five drug concentrations plus control. […] For adherent cells, the assay is terminated by the addition of cold TCA. […] The supernatant is discarded, and the plates are washed five times with tap water and air dried. […] Using the seven absorbance measurements [time zero, (Tz), control growth, (C), and test growth in the presence of drug at the five concentration levels (Ti)], the percentage growth is calculated at each of the drug concentrations levels. Percentage growth inhibition is calculated as: [(Ti Tz)/(C–Tz)] x 100 for concentrations for which Ti>/=Tz and [(Ti-Tz)/Tz] x 100 for concentrations for which Ti < Tz. Three dose response parameters are calculated for each experimental agent. […] The drug concentration resulting in total growth inhibition (TGI) is calculated from Ti = Tz. […] Values are calculated for each of these three parameters if the level of activity is reached; however, if the effect is not reached or is exceeded, the value for that parameter is expressed as greater or less than the maximum or minimum concentration tested.

SF-295 = assay: NCI 60 panel growth inhibition (SRB), CNS cancer; type: cell-based, human; settings: SF-295, 10 μM
Description: as §1

SF-268 = assay: NCI 60 panel growth inhibition (SRB), CNS cancer; type: cell-based, human; settings: SF-268, 10 μM
Description: as §1

SNB-19 = assay: NCI 60 panel growth inhibition (SRB), CNS cancer; type: cell-based, human; settings: SNB-19, 10 μM
Description: as §1

SF-539 = assay: NCI 60 panel growth inhibition (SRB), CNS cancer; type: cell-based, human; settings: SF-539, 10 μM
Description: as §1

U251 = assay: NCI 60 panel growth inhibition (SRB), CNS cancer; type: cell-based, human; settings: U251, 10 μM
Description: as §1

IGROV1 = assay: NCI 60 panel growth inhibition (SRB), ovarian cancer; type: cell-based, human; settings: IGROV1, 10 μM
Description: as §1

NCI/ADR-RES = assay: as above; type: cell-based, human; settings: 10 μM
Description: as §1

OVCAR-3 = assay: as above; type: cell-based, human; settings: OVCAR-3, 10 μM
Description: as §1

OVCAR-5 = assay: as above; type: cell-based, human; settings: OVCAR-5, 10 μM
Description: as §1

SK-OV-3 = assay: as above; type: cell-based, human; settings: SK-OV-3, 10 μM
Description: as §1

OVCAR-8 = assay: as above; type: cell-based, human; settings: OVCAR-8, 10 μM
Description: as §1

OVCAR-4 = assay: as above; type: cell-based, human; settings: OVCAR-4, 10 μM
Description: as §1

NCI-H522 = assay: NCI 60 panel growth inhibition (SRB), non-small cell lung cancer; type: cell-based, human; settings: NCI-H522, 10 μM
Description: as §1

EKVX = assay: as above; type: cell-based, human; settings: 10 μM
Description: as §1

A549/ATCC = assay: as above; type: cell-based, human; settings: 10 μM
Description: as §1

NCI-H226 = assay: as above; type: cell-based, human; settings: NCI-H226, 10 μM
Description: as §1

HOP-62 = assay: as above; type: cell-based, human; settings: HOP-62, 10 μM
Description: as §1

HOP-92 = assay: as above; type: cell-based, human; settings: HOP-92, 10 μM
Description: as §1

NCI-H322M = assay: as above; type: cell-based, human; settings: 10 μM
Description: as §1

NCI-H23 = assay: as above; type: cell-based, human; settings: NCI-H23, 10 μM
Description: as §1

NCI-H460 = assay: as above; type: cell-based, human; settings: NCI-H460, 10 μM
Description: as §1

KM12 = assay: NCI 60 panel growth inhibition (SRB), colon cancer; type: cell-based, human; settings: KM12, 10 μM
Description: as §1

HCC-2998 = assay: NCI 60 panel growth inhibition (SRB), colon cancer; type: cell-based, human; settings: HCC-2998, 10 μM
Description: as §1

HCT-116 = assay: NCI 60 panel growth inhibition (SRB), colon cancer; type: cell-based, human; settings: HCT-116, 10 μM
Description: as §1

SW-620 = assay: NCI 60 panel growth inhibition (SRB), colon cancer; type: cell-based, human; settings: SW-620, 10 μM
Description: as §1

T-47D = assay: NCI 60 panel growth inhibition (SRB), breast cancer; type: cell-based, human; settings: 10 μM
Description: as §1

BT-549 = assay: as above; type: cell-based, human; settings: BT-549, 10 μM
Description: as §1

MDA-MB-468 = assay: as above; type: cell-based, human; settings: MDA-MB-468, 10 μM
Description: as §1

MCF7 = assay: as above; type: cell-based, human; settings: MCF7, 10 μM
Description: as §1

HS 578T = assay: as above; type: cell-based, human; settings: 10 μM
Description: as §1

MDA-MB-231/ATCC = assay: as above; type: cell-based, human; settings: 10 μM
Description: as §1

[1] = system: NCI 60 cancer cell line panel; assay: NCI 60 panel growth inhibition (SRB), whole panel; type: cell-based, human; settings: mean over NCI 60 panel, 10 μM
Description: as §1

SMILES	GI% (SNB-75)	GI% (SF-295)	GI% (SF-268)	GI% (SNB-19)	GI% (SF-539)	GI% (U251)	GI% (IGROV1)	GI% (NCI/ADR-RES)	GI% (OVCAR-3)	GI% (OVCAR-5)	GI% (SK-OV-3)	GI% (OVCAR-8)	GI% (NCI-H522)	GI% (EKVX)	GI% (A549/ATCC)	GI% (NCI-H226)	GI% (HOP-62)	GI% (NCI-H322M)	GI% (NCI-H23)	GI% (NCI-H460)	other results
O=C(COc1ccccc1-c1nc2ccccc2s1)NN=C1C(=O)Nc2ccccc21 [Compound 9a, 2-(2-(Benzo[d]thiazol-2-yl)phenoxy)-N′-(2-oxoindolin-3-ylidene)acetohydrazide]	– (GI% < 5%)	14.46%	6.56%	6.15%	5.56%	– (GI% < 5%)	– (GI% < 5%)	– (GI% < 5%)	– (GI% < 5%)	– (GI% < 5%)	– (GI% < 5%)	– (GI% < 5%)	– (GI% < 5%)	37.48%	11.63%	23.61%	– (GI% < 5%)	– (GI% < 5%)	6.36%	– (GI% < 5%)	GI% (OVCAR-4): 13.08%; GI% (HOP-92): 6.37%; GI% (KM12): 6.23%; GI% (HCC-2998): – (GI% < 5%); GI% (HCT-116): – (GI% < 5%); GI% (SW-620): – (GI% < 5%); GI% (T-47D): 12.02%; GI% (BT-549): – (GI% < 5%); GI% (MDA-MB-468): – (GI% < 5%); GI% (MCF7): 25.11%; GI% (HS 578T): 5.85%; GI% (MDA-MB-231/ATCC): – (GI% < 5%); melting point: 238 to 240 °C
COc1cccc(-c2nc3ccccc3s2)c1OCC(=O)NN=C1C(=O)Nc2ccc(Cl)cc21 [Compound 9k, 2-(2-(Benzo[d]thiazol-2-yl)-6-methoxyphenoxy)-N′-(5-chloro-2-oxoindolin-3-ylidene)acetohydrazide]	– (GI% < 5%)	38.31%	– (GI% < 5%)	– (GI% < 5%)	30.36%	– (GI% < 5%)	– (GI% < 5%)	20.56%	– (GI% < 5%)	8.99%	– (GI% < 5%)	12.69%	28.39%	66.74%	26.29%	18.20%	6.81%	– (GI% < 5%)	17.71%	8.94%	GI% (OVCAR-4): 13.16%; Mean GI% [1]: 14.92%; GI% (KM12): 22.47%; GI% (HCC-2998): – (GI% < 5%); GI% (HCT-116): 13.42%; GI% (SW-620): – (GI% < 5%); GI% (T-47D): 40.62%; GI% (BT-549): 7.55%; GI% (MDA-MB-468): 27.13%; GI% (MCF7): 35.93%; GI% (HS 578T): 8.19%; GI% (MDA-MB-231/ATCC): 19.83%; melting point: 263 to 265 °C
COc1cccc(-c2nc3ccccc3s2)c1OCC(=O)NN=C1C(=O)Nc2ccc(Br)cc21 [Compound 9l, 2-(2-(Benzo[d]thiazol-2-yl)-6-methoxyphenoxy)-N′-(5-bromo-2-oxoindolin-3-ylidene)acetohydrazide]	10.42%	33.14%	8.60%	– (GI% < 5%)	9.75%	– (GI% < 5%)	11.35%	19.73%	– (GI% < 5%)	– (GI% < 5%)	– (GI% < 5%)	10.38%	25.73%	66.66%	17.13%	12.06%	13.44%	– (GI% < 5%)	17.03%	5.26%	GI% (OVCAR-4): 11.40%; Mean GI% [1]: 12.52%; GI% (KM12): 12.55%; GI% (HCC-2998): – (GI% < 5%); GI% (HCT-116): 7.62%; GI% (SW-620): – (GI% < 5%); GI% (T-47D): 41.03%; GI% (BT-549): – (GI% < 5%); GI% (MDA-MB-468): 19.79%; GI% (MCF7): 35.92%; GI% (HS 578T): – (GI% < 5%); GI% (MDA-MB-231/ATCC): 27.34%; melting point: 266 to 268 °C
COc1ccc(-c2nc3ccccc3s2)cc1OCC(=O)NN=C1C(=O)Nc2ccc(C)cc21 [Compound 9n, 2-(5-(Benzo[d]thiazol-2-yl)-2-methoxyphenoxy)-N′-(5-methyl-2-oxoindolin-3-ylidene)acetohydrazide]	– (GI% < 5%)	– (GI% < 5%)	5.27%	– (GI% < 5%)	11.49%	– (GI% < 5%)	– (GI% < 5%)	14.31%	– (GI% < 5%)	7.10%	– (GI% < 5%)	– (GI% < 5%)	– (GI% < 5%)	– (GI% < 5%)	– (GI% < 5%)	– (GI% < 5%)	– (GI% < 5%)	10.32%	12.32%	– (GI% < 5%)	GI% (HOP-92): – (GI% < 5%); GI% (KM12): – (GI% < 5%); GI% (HCC-2998): – (GI% < 5%); GI% (HCT-116): – (GI% < 5%); GI% (SW-620): 6.33%; GI% (T-47D): 13.50%; GI% (BT-549): – (GI% < 5%); GI% (MDA-MB-468): – (GI% < 5%); GI% (MCF7): 25.33%; GI% (HS 578T): 5.72%; GI% (MDA-MB-231/ATCC): 12.37%; melting point: 224 to 226 °C
CNC(=O)c1nn(C)c2c1C(C)(C)Cc1cnc(Nc3ccc(N4CCN(C)CC4)cc3)nc1-2 [Milciclib, reference compound]	120.6%	84.70%	92.00%	87.7%	128.60%	91.50%	97.50%	90.10%	79.30%	90.90%	116.90%	91.10%	129.40%	94.3%	108%	87.70%	109.50%	84.90%	97.60%	92.50%	GI% (OVCAR-4): 87.10%; GI% (HOP-92): 96.20%; Mean GI% [1]: > 100%; Mean GI% ([1]; listed as milciclib): more than 100%; GI% (KM12): 99.4%; GI% (HCC-2998): 89.6%; GI% (HCT-116): 99.8%; GI% (SW-620): 88.5%; GI% (T-47D): 105.70%; GI% (BT-549): 94.80%; GI% (MDA-MB-468): 113.40%; GI% (MCF7): 89.60%; GI% (MDA-MB-231/ATCC): 85.30%
